Test results taken from PubChem BioAssay AID180 (DTP/NCI, 2004).
Several values for one entry are separate records, joined by “and”; a condition that tells them apart may be missing. Equal entries are not always repeated.

Tested on: BDF1 mice, Adenocarcinoma 755 s.c., tumor weight T/C
Test: NCI In Vivo Anticancer Drug Screen. Data for tumor model Adenocarcinoma 755 (subcutaneous) in B6D2F1 (BDF1) mice
Conditions: endpoint: mean tumor weight, schedule: Q01DX011 (ip), higher = larger tumour
Summary of the method: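 Transplantable tumor implanted; mice dosed with compound or vehicle; survival or tumor size recorded; ratio of treated to vehicle control reported.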

| SMILES | T/C (dose: 0.6 mg/kg/injection, vehicle: carboxymethylcellulose (CMC)) | T/C (dose: 1.2 mg/kg/injection, vehicle: carboxymethylcellulose (CMC)) | T/C (dose: 1.2 mg/kg/injection, vehicle: olive oil, sesame oil, peanut oil) | T/C (dose: 2.5 mg/kg/injection, vehicle: carboxymethylcellulose (CMC)) | T/C (dose: 2.5 mg/kg/injection, vehicle: olive oil, sesame oil, peanut oil) | T/C (dose: 0.78 mg/kg/injection, vehicle: methylcellulose (MC)) | T/C (dose: 1.55 mg/kg/injection, vehicle: methylcellulose (MC)) | T/C (dose: 3.1 mg/kg/injection, vehicle: methylcellulose (MC)) | T/C (dose: 6.25 mg/kg/injection, vehicle: methylcellulose (MC)) | T/C (dose: 12.5 mg/kg/injection, vehicle: methylcellulose (MC)) | T/C (dose: 25.0 mg/kg/injection, vehicle: methylcellulose (MC)) | T/C (dose: 50.0 mg/kg/injection, vehicle: methylcellulose (MC)) |
| --- | --- | --- | --- | --- | --- | --- | --- | --- | --- | --- | --- | --- |
| CCCCn1cnc2c(=S)nc(N)[nH]c21 | 57 % of control | 35 % of control | 60 % of control | 2 % of control | 33 % of control | – | – | – | – | – | – | – |
| c1cncc(CSc2ncnc3nc[nH]c23)c1 | – | – | – | – | – | 79 % of control | 40 % of control | 61 % of control | 8 % of control and 20 % of control | 4 % of control | 2 % of control | 2 % of control |
